In patent publication US10138207B2, “Benzomorphan analogs and the use thereof” (priority 2012, dated 2018) one finds Ki, EC50 and Emax data, which are given here for 21 molecules.

For assay [1], the target named is κ opioid receptor (Homo sapiens, UniProt P41145). The assay is described as follows: biochemical. On the set-up: expressed in transfected cells; host or cells: HEK 293 (in-house membrane prep). The class given is binding. The following applies: HEK-293 or CHO cells.
For assay [2], the target named is T1, μ-opioid receptor (Homo sapiens, UniProt P35372). The assay can be described thus: μ-opioid receptor [35S]GTPγS functional assay, HEK-293 or CHO cells. As to conditions: for Emax: read-out: GTPγS μ Emax. (GTPγS is a poorly hydrolysed GTP analogue; its binding reports G protein activation.)
Assay [3] deals with T1, μ-opioid receptor. The assay is described as follows: μ-opioid receptor [35S]GTPγS functional assay, U-2 OS cells. The class given is biochemical. On the set-up: expressed in transfected cells; host or cells: U-2 OS. As to conditions: U-2 OS cells.

T1 sequence (P35372 whole entry, species assumed): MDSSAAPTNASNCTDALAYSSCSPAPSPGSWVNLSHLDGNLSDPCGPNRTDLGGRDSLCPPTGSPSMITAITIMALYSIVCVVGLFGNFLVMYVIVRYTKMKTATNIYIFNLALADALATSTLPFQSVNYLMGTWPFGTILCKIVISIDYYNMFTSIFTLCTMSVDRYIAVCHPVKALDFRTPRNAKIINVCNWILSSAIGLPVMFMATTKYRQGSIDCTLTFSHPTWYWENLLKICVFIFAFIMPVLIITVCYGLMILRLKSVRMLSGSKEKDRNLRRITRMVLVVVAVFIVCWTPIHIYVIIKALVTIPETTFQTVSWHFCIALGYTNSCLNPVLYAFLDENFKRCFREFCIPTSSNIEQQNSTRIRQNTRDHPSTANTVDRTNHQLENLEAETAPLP
Chain of κ opioid receptor (P41145 whole entry): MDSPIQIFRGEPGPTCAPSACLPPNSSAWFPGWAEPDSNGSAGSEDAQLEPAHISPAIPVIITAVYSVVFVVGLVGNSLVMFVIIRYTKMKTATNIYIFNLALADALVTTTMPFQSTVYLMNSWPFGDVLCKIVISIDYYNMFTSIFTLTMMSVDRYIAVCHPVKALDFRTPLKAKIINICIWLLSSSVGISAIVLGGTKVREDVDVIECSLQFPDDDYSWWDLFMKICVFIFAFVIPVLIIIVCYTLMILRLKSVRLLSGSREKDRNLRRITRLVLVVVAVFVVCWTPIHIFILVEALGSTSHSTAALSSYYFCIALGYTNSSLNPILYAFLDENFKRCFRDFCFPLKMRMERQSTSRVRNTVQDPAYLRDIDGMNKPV

`COc1ccc2c(c1)[C@@]1(C)CCN(C)C(C2)[C@@]1(O)c1cccc(C(N)=O)c1` [Compound 67, 3-((6R,11R)-11-hydroxy-8-methoxy-3,6-dimethyl-1,2,3,4,5,6-hexahydro-2,6-methanobenzo[d]azocin-11-yl)benzamide]: the Ki – broadly, a measure of affinity in units of concentration, obtained from inhibition or displacement – in assay [1] (bound in μM) was > 20 µM. In addition, the concentration giving a half-maximal response (EC50) (in general, the midpoint of the concentration-response curve) in assay [2] is > 20 µM.

Regarding `CN1CC[C@]2(C)c3cc(O)ccc3CC1[C@@H]2C(=O)Nc1ccc(C(=O)O)cc1` [Compound 52, 4-((6S,11R)-8-hydroxy-3,6-dimethyl-1,2,3,4,5,6-hexahydro-2,6-methanobenzo[d]azocine-11-carboxamido)benzoic acid], in assay [1] (bound in μM), the Ki was > 20 µM. In assay [2], the 50% effective concentration (EC50) was found to be 1.03 ± 0.0731 µM and the maximal effect (Emax) (usually the maximal effect, on the per cent scale that the assay sets) came to 72.3 ± 3.48%.

As to `CN1CC[C@]2(C)c3cc(O)ccc3C[C@@H]1[C@@H]2N(C)C(=O)c1ccc(C(=O)O)cc1` [Compound 59, 4-(((2R,6R,11R)-8-hydroxy-3,6-dimethyl-1,2,3,4,5,6-hexahydro-2,6-methanobenzo[d]azocin-11-yl)(methyl)carbamoyl)benzoic acid], the Ki in assay [1] (bound in μM) is > 20 µM. In assay [2], the 50% effective concentration (EC50) was 3.44 ± 0.183 µM and the Emax was 76.3 ± 10.2%.

Turning to `CN1CC[C@]2(C)c3cc(O)ccc3C[C@@H]1[C@H]2COc1cccc(C(=O)O)c1` [Compound 41, 3-(((2R,6S,11S)-8-hydroxy-3,6-dimethyl-1,2,3,4,5,6-hexahydro-2,6-methanobenzo[d]azocin-11-yl)methoxy)benzoic acid], the Ki in assay [1] is 1.88 ± 0.28 µM. Also, in assay [2], the EC50 came to 1.22 ± 0.235 µM and the Emax came to 46 ± 3.79%.

In assay [1], `COc1ccc2c(c1)[C@@]1(C)CCN(C)C(C2)[C@@H]1c1cccc(C(=O)O)c1` [Compound 38, 3-((6S,11R)-8-methoxy-3,6-dimethyl-1,2,3,4,5,6-hexahydro-2,6-methanobenzo[d]azocin-11-yl)benzoic acid] displayed a Ki of 17.4 ± 5.98 µM. In addition, the EC50 in assay [2] was > 20 µM.

`CN1CC[C@]2(C)c3cc(O)ccc3CC1[C@@H]2CC(=O)N1CCC(C(=O)O)CC1` [Compound 72, 1-(2-((6S,11R)-8-hydroxy-3,6-dimethyl-1,2,3,4,5,6-hexahydro-2,6-methanobenzo[d]azocin-11-yl)acetyl)piperidine-4-carboxylic acid] yielded a Ki in assay [1] of 14.8 µM. For the same molecule, in assay [2], the EC50 was 4.89 ± 0.508 µM and the maximal response (Emax) was 70.3 ± 8.33%.

In assay [1], `CN1CC[C@]2(C)c3cc(O)ccc3CC1[C@@H]2COc1cncc(C(=O)O)c1` [Compound 34, 5-(((6S,11R)-8-hydroxy-3,6-dimethyl-1,2,3,4,5,6-hexahydro-2,6-methanobenzo[d]azocin-11-yl)methoxy)nicotinic acid] showed an inhibition constant (Ki) of 5.99 ± 0.604 µM. Besides, in assay [2], the EC50 came to 3.64 ± 0.373 µM and the maximal response (Emax) worked out at 16 ± 3.46%.

`COC(=O)c1cccc([C@@]2(O)C3Cc4ccc(OC)cc4[C@@]2(C)CCN3C)c1` [Compound 64, methyl 3-((6R,11S)-11-hydroxy-8-methoxy-3,6-dimethyl-1,2,3,4,5,6-hexahydro-2,6-methanobenzo[d]azocin-11-yl)benzoate] came in with an inhibitory constant (Ki) in assay [1] of 12.4 µM. For the same molecule, the concentration giving a half-maximal response (EC50) in assay [2] was > 20 µM.

For the molecule `COc1ccc2c(c1)[C@@]1(C)CCN(C)C(C2)[C@]1(O)c1cccc(C(=O)O)c1` [Compound 71, 3-((6R,11S)-11-hydroxy-8-methoxy-3,6-dimethyl-1,2,3,4,5,6-hexahydro-2,6-methanobenzo[d]azocin-11-yl)benzoic acid], the Ki in assay [1] (bound in μM) is > 20 µM. Further, in assay [2], the EC50 was 13 ± 1.14 µM and the Emax was determined as 23 ± 4.58%.

`COc1ccc2c(c1)[C@@]1(C)CCN(C)C(C2)[C@@H]1c1cccc(OCc2ccccc2)c1` [Compound 61, (6S,11R)-11-(3-(benzyloxy)phenyl)-8-methoxy-3,6-dimethyl-1,2,3,4,5,6-hexahydro-2,6-methanobenzo[d]azocine] had a Ki in assay [1] of 2.77 ± 0.85 µM. Besides, in assay [2], a half-maximal effect (EC50) was put at 5.76 ± 1.55 µM and the Emax came out at 26.7 ± 0.88%.

In turn, `CN1CC[C@]2(C)c3cc(O)ccc3CC1[C@@H]2CC(=O)Nc1ccc(C(=O)O)cc1` [Compound 32, 4-(2-((6S,11R)-8-hydroxy-3,6-dimethyl-1,2,3,4,5,6-hexahydro-2,6-methanobenzo[d]azocin-11-yl)acetamido)benzoic acid] showed an inhibition constant (Ki) in assay [1] of 12.7 ± 2.09 µM. Moreover, the results for the EC50 in assay [3] (read-out: GTPγS μ EC50) and in assay [2] were 0.233 ± 0.0582 µM and 0.336 ± 0.0928 µM, respectively. Besides, the Emax was 39.8 ± 2.46% in assay [3] (relative to DAMGO, read-out: GTPγS μ Emax) and 23 ± 1.53% in assay [2].

In the case of `CN1CC[C@]2(C)c3cc(O)ccc3CC1C2Nc1ccc(CCS(N)(=O)=O)cc1` (stereo in doubt) [Compound 58, 2-(4-(((2R,6R,11S)-8-hydroxy-3,6-dimethyl-1,2,3,4,5,6-hexahydro-2,6-methanobenzo[d]azocin-11-yl)amino)phenyl)ethanesulfonamide], the Ki in assay [1] came to 0.336 ± 0.0875 µM. Besides, in assay [2], the EC50 worked out at 0.751 ± 0.0433 µM and the maximal response (Emax) was found to be 110 ± 7.55%.

For the molecule `CN1CC[C@]2(C)c3cc(O)ccc3CC1C2N(C)C(=O)c1ccccc1C(=O)O` (stereo in doubt) [Compound 49, 2-(((2R,6R,11S)-8-hydroxy-3,6-dimethyl-1,2,3,4,5,6-hexahydro-2,6-methanobenzo[d]azocin-11-yl)(methyl)carbamoyl)benzoic acid], the inhibitory constant (Ki) in assay [1] (bound in μM) is > 20 µM. In assay [2], the concentration giving a half-maximal response (EC50) was > 20 µM and the Emax came out at 31.3 ± 5.36%.

On to `CN1CC[C@]2(C)c3cc(O)ccc3CC1[C@@H]2CC(=O)Nc1ccccc1C(=O)O` [Compound 35, 2-(2-((6S,11R)-8-hydroxy-3,6-dimethyl-1,2,3,4,5,6-hexahydro-2,6-methanobenzo[d]azocin-11-yl)acetamido)benzoic acid], for which the inhibitory constant (Ki) in assay [1] (bound in μM) was > 20 µM. For the same molecule, in assay [2], the EC50 was determined as 2.57 ± 0.783 µM and the maximum response (Emax) stood at 23 ± 0.58%.

As to `CN1CC[C@]2(C)c3cc(O)ccc3CC1C2N(C)C(=O)Nc1ccc(C(=O)O)cc1` (stereo in doubt) [Compound 46, 4-(3-((2R,6R,11R)-8-hydroxy-3,6-dimethyl-1,2,3,4,5,6-hexahydro-2,6-methanobenzo[d]azocin-11-yl)-3-methylureido)benzoic acid], the Ki in assay [1] (bound in μM) was > 20 µM. In assay [2], the midpoint of the response, the EC50, lay at 13.4 ± 2.99 µM and the Emax was 36.7 ± 3.18%.

For the molecule `COC(=O)c1cccc([C@]2(O)C3Cc4ccc(OC)cc4[C@@]2(C)CCN3C)c1` [Compound 62, methyl 3-((6R,11R)-11-hydroxy-8-methoxy-3,6-dimethyl-1,2,3,4,5,6-hexahydro-2,6-methanobenzo[d]azocin-11-yl)benzoate], in assay [1] (bound in μM), the Ki is > 20 µM. Besides, in assay [2], a half-maximal response (EC50) required 7.45 ± 0.47 µM and the Emax was 24 ± 2.97%.

In the case of `CN1CC[C@]2(C)c3cc(O)ccc3C[C@@H]1[C@@H]2N(C)C(=O)c1cccc(C(=O)O)c1` [Compound 48, 3-(((2R,6R,11R)-8-hydroxy-3,6-dimethyl-1,2,3,4,5,6-hexahydro-2,6-methanobenzo[d]azocin-11-yl)(methyl)carbamoyl)benzoic acid], the Ki in assay [1] (bound in μM) is > 20 µM. In addition, in assay [2], the 50% effective concentration (EC50) was found to be 5.19 ± 0.549 µM and the Emax worked out at 26 ± 4.16%.

Consider `COc1ccc2c(c1)[C@@]1(C)CCN(C)C(C2)[C@@]1(O)c1cccc(C#N)c1` [Compound 60, 3-((6R,11R)-11-hydroxy-8-methoxy-3,6-dimethyl-1,2,3,4,5,6-hexahydro-2,6-methanobenzo[d]azocin-11-yl)benzonitrile], for which the inhibitory constant (Ki) in assay [1] (bound in μM) was > 20 µM. Moreover, in assay [2], the midpoint of the response, the EC50, lay at 6.09 ± 0.529 µM and the Emax came out at 38.3 ± 0.88%.

`COc1ccc2c(c1)[C@@]1(C)CCN(C)C(C2)C1N1CCCC1` (stereo partly drawn) [Compound 69, (6R)-8-methoxy-3,6-dimethyl-11-(pyrrolidin-1-yl)-1,2,3,4,5,6-hexahydro-2,6-methanobenzo[d]azocine]: the inhibitory constant (Ki) in assay [1] was 19.8 µM. In assay [2], the 50% effective concentration (EC50) was > 20 µM and the maximal response (Emax) was 24.3 ± 2.96%.

For `COc1ccc2c(c1)[C@@]1(C)CCN(C)C(C2)[C@]1(O)c1cccc(-c2nnn[nH]2)c1` [Compound 66, (6R,11S)-11-(3-(1H-tetrazol-5-yl)phenyl)-8-methoxy-3,6-dimethyl-1,2,3,4,5,6-hexahydro-2,6-methanobenzo[d]azocin-11-ol], the Ki in assay [1] (bound in μM) was > 20 µM. In assay [2], the half-maximal effective concentration (EC50) amounted to 6.61 ± 0.199 µM and the Emax came out at 20.7 ± 1.33%.

`CN1CC[C@]2(C)c3cc(O)ccc3CC1[C@@H]2COc1cccc(C(=O)O)c1` [Compound 40, 3-(((6S,11R)-8-hydroxy-3,6-dimethyl-1,2,3,4,5,6-hexahydro-2,6-methanobenzo[d]azocin-11-yl)methoxy)benzoic acid] showed a Ki in assay [1] of 3.12 ± 0.483 µM. Further, in assay [2], the 50% effective concentration (EC50) came to 3.07 ± 0.469 µM and the maximal response (Emax) amounted to 25.7 ± 3.76%.
